Results: paper PMC9229919, “4-Aminoquinoline-Based Adamantanes as Potential Anticholinesterase Agents in Symptomatic Treatment of Alzheimer’s Disease” (Pharmaceutics, 2022)
Where two headings read alike, the source gives them in different places.

Assays:
[1] = target: T1, purified human BChE (Homo sapiens, UniProt P06276); test: biochemical; type: biochemical
T1 construct: possibly also a gift of Dr Florian Nachon (the sentence is ambiguous)
Method: (§1) Acetylthiocholine (ATCh) and 5,5′-dithiobis(2-nitrobenzoic acid) (DTNB) were purchased from Sigma-Aldrich, St. Louis, MO, USA. ATCh was dissolved in water and DTNB in 0.1 M sodium phosphate buffer (pH 7.4). The 4-aminoquinilines were dissolved in DMSO and all further dilutions were made in water.
(§2) The sources of AChE and BChE were purified human BChE and recombinant human AChE that was kindly provided by Dr Florian Nachon (Département de Toxicologie, Armed Forces Biomedical Research Institute, Brétigny-sur-Orge, France). […] The enzymes were diluted in sodium phosphate buffer 0.1 M (pH 7.4) containing 0.1% BSA.
(§3) Enzyme activities were measured spectrophotometrically using a slightly modified Ellman method, as described earlier. […] At least three inhibitor concentrations for each substrate concentration were used in at least three experiments. The apparent inhibition constant (Ki,app) was calculated using the Hunter–Downs Equation and linear regression analysis:(1) Ki,app=vi·i/v0−vi=Ki+Ki/KS·s where the y-intercept determines the enzyme-inhibitor dissociation constant (Ki), while the x-intercept determines the enzyme-substrate dissociation constant, KS.
(§4) The Hunter–Downs Equation was used under the assumption that the substrate, due to relatively low concentrations used in experiments, would bind only to the catalytic site of the enzymes, while the inhibitors would bind to both CAS and/or PAs. This allowed the type of inhibition to be determined from Ki,app vs. substrate concentration ([S]) dependency on Hunter–Downs plot.
(§5) The final content of DMSO in the measurements was up to 0.2%. […] The measurements were performed at 25 °C on a Tecan Infinite M200Pro plate reader (Tecan Austria GmbH, Salzburg, Austria).

[2] = target: T2, recombinant human AChE (Homo sapiens, UniProt P22303); test: biochemical; type: biochemical; conditions: for IS: IS = Ki(BChE)/Ki(AChE), IS > 1 selective to AChE
T2 construct: gift of Dr Florian Nachon (Armed Forces Biomedical Research Institute, Brétigny-sur-Orge, France)
T2 sequence (P22303 32-614): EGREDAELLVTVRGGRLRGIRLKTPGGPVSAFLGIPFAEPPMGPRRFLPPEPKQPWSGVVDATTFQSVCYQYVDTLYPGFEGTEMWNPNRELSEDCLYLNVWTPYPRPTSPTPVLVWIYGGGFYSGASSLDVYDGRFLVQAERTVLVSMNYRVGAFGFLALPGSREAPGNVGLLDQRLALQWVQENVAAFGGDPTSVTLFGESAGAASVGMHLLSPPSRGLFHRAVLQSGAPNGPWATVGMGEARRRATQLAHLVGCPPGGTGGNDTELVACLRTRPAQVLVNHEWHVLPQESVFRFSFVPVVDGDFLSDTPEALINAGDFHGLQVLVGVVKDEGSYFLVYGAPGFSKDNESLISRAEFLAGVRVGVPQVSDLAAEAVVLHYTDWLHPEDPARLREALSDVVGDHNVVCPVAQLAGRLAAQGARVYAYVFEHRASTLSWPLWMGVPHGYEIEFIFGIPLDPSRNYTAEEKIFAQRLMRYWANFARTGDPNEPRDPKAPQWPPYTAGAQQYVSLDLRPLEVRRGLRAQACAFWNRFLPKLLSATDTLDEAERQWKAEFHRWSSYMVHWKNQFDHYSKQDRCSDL
Method: as §1, §2, §3, §4, §5

[3] = Ferric reducing antioxidant power (FRAP) assay; conditions: mean ± standard error of three experiments;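 note: expressed as µM Fe2+ equivalents from an FeSO4·7H2O standard curve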
Method: . All the chemicals were purchased from Sigma-Aldrich (St. Louis, MO, USA), except for tripyridyltriazine (TPTZ) (Fluka, Buchs, Switzerland) and FeCl3 (Kemika, Zagreb, Croatia). The FRAP assay was assessed according to Benzie and Strain [53] with slight procedure adjustments for 96-well microplates. The method is based on the reduction of the ferric-tripyridyltriazine (Fe^3+-TPTZ) complex to ferrous tripyridyltriazine (Fe^2+-TPTZ) by the action of electron-donating compounds at a low pH. Briefly, the FRAP reagent was prepared by mixing acetate buffer (300 mM, pH 3.6), a solution of 10 mM TPTZ in 40 mM HCl, and 20 mM FeCl3 at 10:1:1 (v/v/v). Then, 240 μL of FRAP reagent and 10 μL of sample solution were added to a 96-well plate and incubated at 37 °C for 60 min. The absorbance was measured at 593 nm using a microplate reader (Infinite M200PRO, Tecan Austria GmbH, Salzburg, Austria) against a blank. The reducing capacity was determined for 10 and 100 µM compound concentrations. […]. All measurements were performed in three independent experiments. FRAP values, denominating the reduction of ferric-tripyridyltriazine (Fe^3+-TPTZ) to ferrous tripyridyltriazine (Fe^2+-TPTZ) by 4-aminoquinolines were calculated based on a standard curve obtained using […].

[4] = Reverse-phase thin-layer chromatographic lipophilicity (RF, RM0); type: physicochemical; conditions: for RM0: intercept of RM = RM0 + bC; for b: slope of RM = RM0 + bC; for RF, Methanol/Water/Hydrochloric acid (conc.), mobile phase I / RF, Dioxane/Water/Hydrochloric acid (conc.), mobile phase II / RF, Methanol/Water/Hydrochloric acid (conc.), mobile phase II / RF, Acetone/Water/Hydrochloric acid (conc.), mobile phase III / RF, Dioxane/Water/Hydrochloric acid (conc.), mobile phase III / RF, Methanol/Water/Hydrochloric acid (conc.), mobile phase III / RF, Dioxane/Water/Hydrochloric acid (conc.), mobile phase IV / RF, Acetone/Water/Hydrochloric acid (conc.), mobile phase IV / RF, Methanol/Water/Hydrochloric acid (conc.), mobile phase IV / RF, Acetone/Water/Hydrochloric acid (conc.), mobile phase IX / RF, Methanol/Water/Hydrochloric acid (conc.), mobile phase IX / RF, Dioxane/Water/Hydrochloric acid (conc.), mobile phase V / RF, Acetone/Water/Hydrochloric acid (conc.), mobile phase V / RF, Methanol/Water/Hydrochloric acid (conc.), mobile phase V / RF, Dioxane/Water/Hydrochloric acid (conc.), mobile phase VI / RF, Acetone/Water/Hydrochloric acid (conc.), mobile phase VI / RF, Methanol/Water/Hydrochloric acid (conc.), mobile phase VI / RF, Acetone/Water/Hydrochloric acid (conc.), mobile phase VII / RF, Methanol/Water/Hydrochloric acid (conc.), mobile phase VII / RF, Acetone/Water/Hydrochloric acid (conc.), mobile phase VIII / RF, Methanol/Water/Hydrochloric acid (conc.), mobile phase VIII: RP-18 silica; for RF, Methanol/Water/Hydrochloric acid (conc.), mobile phase I: I = 90%MeOH/5%H2O/5%HCl; for RF, Dioxane/Water/Hydrochloric acid (conc.), mobile phase II: II = 80%Dioxane/15%H2O/5%HCl; for RF, Methanol/Water/Hydrochloric acid (conc.), mobile phase II: II = 85%MeOH/10%H2O/5%HCl; for RF, Acetone/Water/Hydrochloric acid (conc.), mobile phase III: III = 70%AC/25%H2O/5%HCl; for RF, Dioxane/Water/Hydrochloric acid (conc.), mobile phase III: III = 70%Dioxane/25%H2O/5%HCl; for RF, Methanol/Water/Hydrochloric acid (conc.), mobile phase III: III = 80%MeOH/15%H2O/5%HCl; for RF, Dioxane/Water/Hydrochloric acid (conc.), mobile phase IV: IV = 60%Dioxane/35%H2O/5%HCl; for RF, Acetone/Water/Hydrochloric acid (conc.), mobile phase IV: IV = 65%AC/30%H2O/5%HCl; for RF, Methanol/Water/Hydrochloric acid (conc.), mobile phase IV: IV = 75%MeOH/20%H2O/5%HCl; for RF, Acetone/Water/Hydrochloric acid (conc.), mobile phase IX: IX = 40%AC/55%H2O/5%HCl; for RF, Methanol/Water/Hydrochloric acid (conc.), mobile phase IX: IX = 50%MeOH/45%H2O/5%HCl; for RF, Dioxane/Water/Hydrochloric acid (conc.), mobile phase V: V = 50%Dioxane/45%H2O/5%HCl; for RF, Acetone/Water/Hydrochloric acid (conc.), mobile phase V: V = 60%AC/35%H2O/5%HCl; for RF, Methanol/Water/Hydrochloric acid (conc.), mobile phase V: V = 70%MeOH/25%H2O/5%HCl; for RF, Dioxane/Water/Hydrochloric acid (conc.), mobile phase VI: VI = 40%Dioxane/55%H2O/5%HCl; for RF, Acetone/Water/Hydrochloric acid (conc.), mobile phase VI: VI = 55%AC/40%H2O/5%HCl; for RF, Methanol/Water/Hydrochloric acid (conc.), mobile phase VI: VI = 65%MeOH/30%H2O/5%HCl; for RF, Acetone/Water/Hydrochloric acid (conc.), mobile phase VII: VII = 50%AC/45%H2O/5%HCl; for RF, Methanol/Water/Hydrochloric acid (conc.), mobile phase VII: VII = 60%MeOH/35%H2O/5%HCl; for RF, Acetone/Water/Hydrochloric acid (conc.), mobile phase VIII: VIII = 45%AC/50%H2O/5%HCl; for RF, Methanol/Water/Hydrochloric acid (conc.), mobile phase VIII: VIII = 55%MeOH/40%H2O/5%HCl
Method: Chromatographic determination of lipophilicity
Merck, Darmstadt, Germany). The mobile phase contained organic modifier (methanol, acetone or dioxane), water and hydrochloric acid.
Methanol was varied in the range […]
with an increment of 10%. […]
before chromatogram development. The solvent developing distance was 4.5 cm. Detection of […]
All experiments were performed at ambient temperature (22±2 °C). Retention parameters were calculated as previously described. […]

[5] = logarithm of Ki in µM, BChE, dependent variable of the QSAR model, read-out: Y Measured 2 log(ki)Bche, log (Ki/µM BChE) (converted)
[6] = ± standard error, 25 °C, ATCh substrate, read-out: Ki BChE
[7] = log (Ki/µM AChE), read-out: Y Measured 1 log(ki)Ache (converted)
[8] = ± standard error, 25 °C, ATCh substrate, read-out: Ki AChE
[9] = Acetone/Water/Hydrochloric acid (conc.)
[10] = Dioxane/Water/Hydrochloric acid (conc.)
[11] = Methanol/Water/Hydrochloric acid (conc.)

T1 sequence (P06276 29-602): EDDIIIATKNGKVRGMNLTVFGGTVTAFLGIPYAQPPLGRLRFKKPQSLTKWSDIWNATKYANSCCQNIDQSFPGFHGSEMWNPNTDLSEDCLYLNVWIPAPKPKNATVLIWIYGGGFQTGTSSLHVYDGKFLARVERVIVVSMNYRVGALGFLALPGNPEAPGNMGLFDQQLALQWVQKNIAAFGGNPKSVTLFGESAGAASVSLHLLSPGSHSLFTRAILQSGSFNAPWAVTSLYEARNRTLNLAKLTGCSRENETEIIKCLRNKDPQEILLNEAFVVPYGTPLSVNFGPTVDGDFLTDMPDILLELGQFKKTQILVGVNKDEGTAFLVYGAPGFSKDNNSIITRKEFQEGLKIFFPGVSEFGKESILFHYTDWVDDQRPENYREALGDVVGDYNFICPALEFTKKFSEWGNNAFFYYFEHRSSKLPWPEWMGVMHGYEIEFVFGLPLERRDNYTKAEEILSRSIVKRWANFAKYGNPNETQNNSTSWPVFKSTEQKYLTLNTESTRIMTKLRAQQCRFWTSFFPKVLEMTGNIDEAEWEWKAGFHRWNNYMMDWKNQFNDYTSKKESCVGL

Compound	Ki [1, 6] [µM]	IS [2]	Ki [2, 8] [µM]	FRAP ([3]; 10 µM compound) [µM]	FRAP ([3]; 100 µM compound) [µM]	RM0 [4, 9]	b [4, 9]	RM0 [4, 10]	b [4, 10]	RM0 [4, 11]	b [4, 11]	RF, Methanol/Water/Hydrochloric acid (conc.), mobile phase I [4]	RF, Dioxane/Water/Hydrochloric acid (conc.), mobile phase II [4]	RF, Methanol/Water/Hydrochloric acid (conc.), mobile phase II [4]	RF, Acetone/Water/Hydrochloric acid (conc.), mobile phase III [4]	RF, Dioxane/Water/Hydrochloric acid (conc.), mobile phase III [4]	RF, Methanol/Water/Hydrochloric acid (conc.), mobile phase III [4]	RF, Dioxane/Water/Hydrochloric acid (conc.), mobile phase IV [4]	RF, Acetone/Water/Hydrochloric acid (conc.), mobile phase IV [4]	RF, Methanol/Water/Hydrochloric acid (conc.), mobile phase IV [4]	other results
FC(F)(F)c1ccc2c(NCCCNCC34CC5CC(CC(C5)C3)C4)ccnc2c1 [Compound 7]	2.6 ± 0.2	2.4	1.1	7.1 ± 2.1	21 ± 7	2.012	3.156	0.9445	1.874	2.606	3.427	0.73	0.74	0.67	0.57	0.7	0.51	0.7	0.54	0.51	Ki [1, 5]: 2.6 µM; Ki [2, 7]: 1.1 µM; RF, Acetone/Water/Hydrochloric acid (conc.), mobile phase IX [4]: 0.11; RF, Methanol/Water/Hydrochloric acid (conc.), mobile phase IX [4]: 0.09; RF, Dioxane/Water/Hydrochloric acid (conc.), mobile phase V [4]: 0.51; RF, Acetone/Water/Hydrochloric acid (conc.), mobile phase V [4]: 0.42; RF, Methanol/Water/Hydrochloric acid (conc.), mobile phase V [4]: 0.44; RF, Dioxane/Water/Hydrochloric acid (conc.), mobile phase VI [4]: 0.33; RF, Acetone/Water/Hydrochloric acid (conc.), mobile phase VI [4]: 0.36; RF, Methanol/Water/Hydrochloric acid (conc.), mobile phase VI [4]: 0.36; RF, Acetone/Water/Hydrochloric acid (conc.), mobile phase VII [4]: 0.32; RF, Methanol/Water/Hydrochloric acid (conc.), mobile phase VII [4]: 0.23; RF, Acetone/Water/Hydrochloric acid (conc.), mobile phase VIII [4]: 0.24; RF, Methanol/Water/Hydrochloric acid (conc.), mobile phase VIII [4]: 0.15
Clc1ccc2c(NCCNCCC34CC5CC(CC(C5)C3)C4)ccnc2c1 [Compound 8]	0.92 ± 0.07	0.6	1.6 ± 0.1	33 ± 12	62 ± 7	2.227	3.421	1.144	2.1084	2.713	3.446	0.69	0.74	0.63	0.55	0.68	0.45	0.66	0.5	0.47	Ki [1, 5]: 0.92 µM; Ki [2, 7]: 1.6 µM; RF, Acetone/Water/Hydrochloric acid (conc.), mobile phase IX [4]: 0.08; RF, Methanol/Water/Hydrochloric acid (conc.), mobile phase IX [4]: 0.08; RF, Dioxane/Water/Hydrochloric acid (conc.), mobile phase V [4]: 0.47; RF, Acetone/Water/Hydrochloric acid (conc.), mobile phase V [4]: 0.39; RF, Methanol/Water/Hydrochloric acid (conc.), mobile phase V [4]: 0.39; RF, Dioxane/Water/Hydrochloric acid (conc.), mobile phase VI [4]: 0.28; RF, Acetone/Water/Hydrochloric acid (conc.), mobile phase VI [4]: 0.34; RF, Methanol/Water/Hydrochloric acid (conc.), mobile phase VI [4]: 0.28; RF, Acetone/Water/Hydrochloric acid (conc.), mobile phase VII [4]: 0.29; RF, Methanol/Water/Hydrochloric acid (conc.), mobile phase VII [4]: 0.18; RF, Acetone/Water/Hydrochloric acid (conc.), mobile phase VIII [4]: 0.21; RF, Methanol/Water/Hydrochloric acid (conc.), mobile phase VIII [4]: 0.13
CC(CCNCCC12CC3CC(CC(C3)C1)C2)Nc1ccnc2cc(Cl)ccc12 (centres unmarked) [Compound 14]	0.15 ± 0.01	0.1	1.9 ± 0.1	7.6 ± 2.3	86 ± 8	2.236	3.396	1.306	2.3979	3.293	4.124	0.67	0.78	0.62	0.53	0.69	0.45	0.66	0.5	0.42	preference for BChE ([1]; BChE over AChE): 10 times; RF, Acetone/Water/Hydrochloric acid (conc.), mobile phase IX [4]: 0.08; RF, Methanol/Water/Hydrochloric acid (conc.), mobile phase IX [4]: 0.03; RF, Dioxane/Water/Hydrochloric acid (conc.), mobile phase V [4]: 0.45; RF, Acetone/Water/Hydrochloric acid (conc.), mobile phase V [4]: 0.38; RF, Methanol/Water/Hydrochloric acid (conc.), mobile phase V [4]: 0.34; RF, Dioxane/Water/Hydrochloric acid (conc.), mobile phase VI [4]: 0.27; RF, Acetone/Water/Hydrochloric acid (conc.), mobile phase VI [4]: 0.33; RF, Methanol/Water/Hydrochloric acid (conc.), mobile phase VI [4]: 0.25; RF, Acetone/Water/Hydrochloric acid (conc.), mobile phase VII [4]: 0.25; RF, Methanol/Water/Hydrochloric acid (conc.), mobile phase VII [4]: 0.16; RF, Acetone/Water/Hydrochloric acid (conc.), mobile phase VIII [4]: 0.21; RF, Methanol/Water/Hydrochloric acid (conc.), mobile phase VIII [4]: 0.1
